Values of other authors in PubChem BioAssay AID1259409 (Chemical Carcinogenesis Research Information System (CCRIS), 2018).

System: rodent chemically induced tumor inhibition, incidence and multiplicity
Test: CCRIS tumor inhibitor studies
Details: Promoter: NONE USED

## C=C(C)[C@H]1CC=C(C)CC1
Carcinogen: 4-(METHYLNITROSAMINO)-1-(3-PYRIDYL)-1-BUTANONE, 64019-91-4, Dose [Inhibitor]: 0, 25 MG LIMONENE OIL 0.2 ML COTTONSEED OIL 1 HR PRIOR TO EACH CARCINOGEN DOSE (STUDY DURATION: 28 WK), Route [Inhibitor]: INTRAGASTRIC, Species: MOUSE, Strain/Sex: STRAIN-A/FEMALE, Target Tissue: Type of Lesion: FORESTOMACH: PAPILLOMA, Dose [Carcinogen]: 0.5 MG IN O.1 ML TRICAPRYLIN 2/WK FOR 8 WK
  tumour outcome (control, treated, inhibition, significance): 17%, 0%, 100%,
Carcinogen: 4-(METHYLNITROSAMINO)-1-(3-PYRIDYL)-1-BUTANONE, 64091-91-4, Dose [Inhibitor]: 0, 0.63% IN DIET FOR 17 WK BEGINNING 1 WK PRIOR TO CARCINOGEN DOSE (STUDY DURATION: 17 WK), Route [Inhibitor]: ORAL, Species: MOUSE, Strain/Sex: STRAIN-A/FEMALE, Target Tissue: Type of Lesion: LUNG: ADENOMA, Dose [Carcinogen]: 10 UMOL IN 0.1 ML SALINE ONCE
  tumour outcome (control, treated, inhibition, significance): 100%, 96%, 4%, not significant
Carcinogen: 4-(METHYLNITROSAMINO)-1-(3-PYRIDYL)-1-BUTANONE, 64091-91-4, Dose [Inhibitor]: 0, 25 MG IN 0.2 ML COTTONSEED OIL 1 HR PRIOR TO EACH CARCINOGEN DOSE (STUDY DURATION: 28 WK), Route [Inhibitor]: INTRAGASTRIC, Species: MOUSE, Strain/Sex: STRAIN-A/FEMALE, Target Tissue: Type of Lesion: FORESTOMACH: PAPILLOMA, Dose [Carcinogen]: 0.5 MG IN 0.1 ML TRICAPRYLIN 2/WK FOR 8 WK
  tumour outcome (control, treated, inhibition, significance): 90%, 0%, 100%, p<0.001
Carcinogen: 4-(METHYLNITROSAMINO)-1-(3-PYRIDYL)-1-BUTANONE, 64091-91-4, Dose [Inhibitor]: O, 25 MG LIMONENE FROM LEMON OIL IN 0.2 ML COTTONSEED OIL 1 HR PRIOR TO EACH CARCINOGEN DOSE (STUDY DURATION: 28 WK), Route [Inhibitor]: INTRAGASTRIC, Species: MOUSE, Strain/Sex: STRAIN-A/FEMALE, Target Tissue: Type of Lesion: FORESTOMACH: PAPILLOMA, Dose [Carcinogen]: 0.5 MG IN OIL ML TRICAPRYLIN 2/WK FOR 8 WK
  tumour outcome (control, treated, inhibition, significance): 17%, 0%, 100%, not calculated
Carcinogen: 7,12-DIMETHYLBENZ[A]ANTHRACENE, 57-97-6, Dose [Inhibitor]: 0, 1% IN DIET FOR 3 WK BEGINNING 2 WK PRIOR TO CARCINOGEN DOSE (STUDY DURATION: 20 WK), Route [Inhibitor]: ORAL, Species: RAT, Strain/Sex: WISTAR/FEMALE, Target Tissue: Type of Lesion: MAMMARY GLAND: CARCINOMA, Dose [Carcinogen]: 50 MG/KG IN SESAME OIL ONCE
  tumour outcome (control, treated, inhibition, significance): 98%, 96%, 2%, not significant
Carcinogen: 7,12-DIMETHYLBENZ[A]ANTHRACENE, 57-97-6, Dose [Inhibitor]: 0, 5% IN DIET BEGINNING POST CARCINOGEN TREATMENT AND CONTINUING FOR 25 WK (STUDY DURATION: 25 WK), Route [Inhibitor]: ORAL, Species: RAT, Strain/Sex: SPRAGUE-DAWLEY/FEMALE, Target Tissue: Type of Lesion: MAMMARY GLAND: TUMOR, Dose [Carcinogen]: 65 MG/KG IN SESAME OIL ONCE
  tumour outcome (control, treated, inhibition, significance): 100%, 97%, 3%, not significant
Carcinogen: 7,12-DIMETHYLBENZ[A]ANTHRACENE, 57-97-6, Dose [Inhibitor]: 0, 5% IN DIET FOR 1 WK PRIOR TO AND 1 WK POST CARCINOGEN TREATMENT (STUDY DURATION: 25 WK), Route [Inhibitor]: ORAL, Species: RAT, Strain/Sex: SPRAGUE-DAWLEY/FEMALE, Target Tissue: Type of Lesion: MAMMARY GLAND: TUMOR, Dose [Carcinogen]: 65 MG/KG IN SESAME OIL ONCE
  tumour outcome (control, treated, inhibition, significance): 100%, 88%, 12%, not significant
Carcinogen: 7,12-DIMETHYLBENZ[A]ANTHRACENE, 57-97-6, Dose [Inhibitor]: 0, 36 MMOL/KG IN DIET FOR 24 WK BEGINNING 2 WK PRIOR TO CARCINOGEN DOSE (STUDY DURATION: 24 WK), Route [Inhibitor]: ORAL, Species: RAT, Strain/Sex: SPRAGUE-DAWLEY/FEMALE, Target Tissue: Type of Lesion: MAMMARY GLAND: TUMOR, Dose [Carcinogen]: 65 MG/KG BW ONCE
  tumour outcome (control, treated, inhibition, significance): 91%, 75%, 18%, not significant
Carcinogen: BENZO[A]PYRENE, 50-32-8, Dose [Inhibitor]: 10 MG IN 0.1 ML ACETONE 3/WK ADMINISTERED SIMULTANEOUSLY WITH CARCINOGEN FOR DURATION OF STUDY (STUDY DURATION: 440 D), Route [Inhibitor]: DERMAL, Species: MOUSE, Strain/Sex: ICR/FEMALE, Target Tissue: Type of Lesion: SKIN: PAPILLOMA, Dose [Carcinogen]: 5 UG IN 0.1 ML ACETONE 3/WK FOR DURATION OF STUDY
  tumour outcome (control, treated, inhibition, significance): 16/50 (32%), 13/50 (26%), 19%, not calculated
Carcinogen: BENZO[A]PYRENE, 50-32-8, Dose [Inhibitor]: 10 MG IN 0.1 ML ACETONE 3/WK ADMINISTERED SIMULTANEOUSLY WITH CARCINOGEN FOR DURATION OF STUDY (STUDY DURATION: 440 D), Route [Inhibitor]: DERMAL, Species: MOUSE, Strain/Sex: ICR/FEMALE, Target Tissue: Type of Lesion: SKIN: SQUAMOUS CARCINOMA, Dose [Carcinogen]: 5 UG IN 0.1 ML ACETONE 3/WK FOR DURATION OF STUDY
  tumour outcome (control, treated, inhibition, significance): 12/50 (24%), 4/50 (8%), 67%, not calculated
Carcinogen: DIETHYLNITROSAMINE, 55-18-5, N-METHYL-N-NITROSOUREA, 684-93-5, N-BUTYL-N-(4-HYDROXYBUTYL)NITROSAMINE, 3817-11-6, 1, Carcinogen: DIETHYLNITROSAMINE, 55-18-5, N-METHYL-N-NITROSOUREA, 684-93-5, N-BUTYL-N-(4-HYDROXYBUTYL)NITROSAMINE, 3817-11-6, 1, Dose [Inhibitor]: 0, 0.5% IN DIET FOR 24 WK BEGINNING POST CARCINOGEN TREATMENT (STUDY DURATION: 28 WK), Route [Inhibitor]: ORAL, Species: RAT, Strain/Sex: F344/MALE, Target Tissue: Type of Lesion: KIDNEY: ADENOMA, Dose [Carcinogen]: 100 MG/KG DEN IP ONCE, 20 MG/KG MNU IP 2/WK FOR FIRST 2 WK, 0.05% BBN IN DRINKING WATER DURING FIRST 2 WK, 40 MG/KG D, Dose [Carcinogen]: 100 MG/KG DEN IP ONCE, 20 MG/KG MNU IP 2/WK FOR FIRST 2 WK, 0.05% BBN IN DRINKING WATER DURING FIRST 2 WK, 40 MG/KG D
  tumour outcome (control, treated, inhibition, significance): 4/19 (21%), 6/20 (30%), -43%, not significant
Carcinogen: DIETHYLNITROSAMINE, 55-18-5, N-METHYL-N-NITROSOUREA, 684-93-5, N-BUTYL-N-(4-HYDROXYBUTYL)NITROSAMINE, 3817-11-6, 1, Carcinogen: DIETHYLNITROSAMINE, 55-18-5, N-METHYL-N-NITROSOUREA, 684-93-5, N-BUTYL-N-(4-HYDROXYBUTYL)NITROSAMINE, 3817-11-6, 1, Dose [Inhibitor]: 0, 1% IN DIET FOR 24 WK BEGINNING POST CARCINOGEN TREATMENT (STUDY DURATION: 28 WK), Route [Inhibitor]: ORAL, Species: RAT, Strain/Sex: F344/MALE, Target Tissue: Type of Lesion: KIDNEY: ADENOMA, Dose [Carcinogen]: 100 MG/KG DEN IP ONCE, 20 MG/KG MNU IP 2/WK FOR FIRST 2 WK, 0.05% BBN IN DRINKING WATER DURING FIRST 2 WK, 40 MG/KG D, Dose [Carcinogen]: 100 MG/KG DEN IP ONCE, 20 MG/KG MNU IP 2/WK FOR FIRST 2 WK, 0.05% BBN IN DRINKING WATER DURING FIRST 2 WK, 40 MG/KG D
  tumour outcome (control, treated, inhibition, significance): 4/19 (21%), 5/19 (26%), -24%, not significant
Carcinogen: DIETHYLNITROSAMINE, 55-18-5, N-METHYL-N-NITROSOUREA, 684-93-5, N-BUTYL-N-(4-HYDROXYBUTYL)NITROSAMINE, 3817-11-6, 1, Carcinogen: DIETHYLNITROSAMINE, 55-18-5, N-METHYL-N-NITROSOUREA, 684-93-5, N-BUTYL-N-(4-HYDROXYBUTYL)NITROSAMINE, 3817-11-6, 1, Dose [Inhibitor]: 0, 2% IN DIET FOR 24 WK BEGINNING POST CARCINOGEN TREATMENT (STUDY DURATION: 28 WK), Route [Inhibitor]: ORAL, Species: RAT, Strain/Sex: F344/MALE, Target Tissue: Type of Lesion: KIDNEY: ADENOMA, Dose [Carcinogen]: 100 MG/KG DEN IP ONCE, 20 MG/KG MNU IP 2/WK FOR FIRST 2 WK, 0.05% BBN IN DRINKING WATER DURING FIRST 2 WK, 40 MG/KG D, Dose [Carcinogen]: 100 MG/KG DEN IP ONCE, 20 MG/KG MNU IP 2/WK FOR FIRST 2 WK, 0.05% BBN IN DRINKING WATER DURING FIRST 2 WK, 40 MG/KG D
  tumour outcome (control, treated, inhibition, significance): 4/19 (21%), 13/19 (68%), -224%, p<0.01
Carcinogen: METHYLCHOLANTHRENE, 56-49-5, Dose [Inhibitor]: 0, 0.5 ML 1/WK FOR 1 YR BEGINNING POST CARCINOGEN TREATMENT (STUDY DURATION: 24 MO), Route [Inhibitor]: GAVAGE, Species: MOUSE, Strain/Sex: SWISS/FEMALE, Target Tissue: Type of Lesion: LUNG: PAPILLARY ADENOMA AND ADENOCARCINOMA, Dose [Carcinogen]: 0.01 MG ON D 1, 7, 14 AND 21 AFTER BIRTH
  tumour outcome (control, treated, inhibition, significance): 7/11 (64%), 8/12 (67%), -5%, not calculated
Carcinogen: METHYLCHOLANTHRENE, 56-49-5, Dose [Inhibitor]: 0, 0.5 ML 1/WK FOR 1 YR BEGINNING POST CARCINOGEN TREATMENT (STUDY DURATION: 24 MO), Route [Inhibitor]: GAVAGE, Species: MOUSE, Strain/Sex: SWISS/MALE, Target Tissue: Type of Lesion: LIVER: HEPATOCELLULAR ADENOMA AND CARCINOMA, Dose [Carcinogen]: 0.01 MG ON D 1, 7, 14 AND 21 AFTER BIRTH
  tumour outcome (control, treated, inhibition, significance): 3/13 (23%), 2/14 (14%), 39%, not calculated
Carcinogen: METHYLCHOLANTHRENE, 56-49-5, Dose [Inhibitor]: 0, 0.5 ML 1/WK FOR 1 YR BEGINNING POST CARCINOGEN TREATMENT (STUDY DURATION: 24 MO), Route [Inhibitor]: GAVAGE, Species: MOUSE, Strain/Sex: SWISS/MALE, Target Tissue: Type of Lesion: LUNG: PAPILLARY ADENOMA AND ADENOCARCINOMA, Dose [Carcinogen]: 0.01 MG ON D 1, 7, 14 AND 21 AFTER BIRTH
  tumour outcome (control, treated, inhibition, significance): 10/13 (77%), 7/14 (50%), 35%, not calculated
